Test results reported in patent US8475772B2, “Peptide-based oral care surface reagents for personal care” (E I du Pont de Nemours and Company, priority 2003, dated 2013).

What was measured:
[1] = Phage ELISA on hair surfaces; assay type: binding, human; settings: for Hair A450: phage clone on hair, 37° C. 15 min, anti-M13 HRP, mean of at least three replicates
Experimental: (§1) Enzyme-linked immunosorbent assay (ELISA) was used to evaluate the hair-binding specificity of selected phage-peptide clones. Phage-peptide clones identified in Examples 1 and 2 along with a randomly chosen control G-F9, KHGPDLLRSAPR (given as SEQ ID NO:63) were amplified. More than 10^14 pfu phages were added to pre-blocked hair surfaces.
(§2) A unique hair or pig skin-bottom 96-well apparatus was created by applying one layer of Parafilm® under the top 96-well block of a Minifold I Dot-Blot System (Schleicher & Schuell, Inc., Keene, N.H.), adding hair or a layer of hairless pig skin on top of the Parafilm® cover, and then tightening the apparatus. For each clone to be tested, the hair-covered well was incubated for 1 h at room temperature with 200 μL of blocking buffer, consisting of 2% non-fat dry milk (Schleicher & Schuell, Inc.) in TBS. A second Minifold system with pig skin at the bottom of the wells was treated with blocking buffer simultaneously to serve as a control. The blocking buffer was removed by inverting the systems and blotting them dry with paper towels. The systems were rinsed 6 times with wash buffer consisting of TBST-0.05%. The wells were filled with 200 μL of TBST-0.5% containing 1 mg/mL BSA and then 10 μL (over 10^12 copies) of purified phage stock was added to each well. The samples were incubated at 37° C. for 15 min with slow shaking. The non-binding phage was removed by washing the wells 10 to 20 times with TBST-0.5%. Then, 100 μL of horseradish peroxidase/anti-M13 antibody conjugate (Amersham USA, Piscataway, N.J.), diluted 1:500 in the blocking buffer, was added to each well and incubated for 1 h at room temperature. The conjugate solution was removed and the wells were washed 6 times with TBST-0.05%. TMB substrate (200 μL), obtained from Pierce Biotechnology (Rockford, Ill.) was added to each well and the color was allowed to develop for between 5 to 30 min, typically for 10 min, at room temperature. Then, stop solution (200 μL of 2 M H2SO4) was added to each well and the solution was transferred to a 96-well plate and the A450 was measured using a microplate spectrophotometer (Molecular Devices, Sunnyvale, Calif.). The resulting absorbance values, reported as the mean of at least three replicates, and the standard error of the mean (SEM) are given in Table 10.

[2] = Phage ELISA on pig skin surfaces (specificity control); assay type: binding; settings: for Pig Skin A450: phage clone on pig skin, 37° C. 15 min, anti-M13 HRP, mean of at least three replicates
Experimental: as §1, §2

[3] = Titer-based phage binding assay on normal hair; parameters: species or system human; settings: output pfu retained by 10 mg normal hair; input 10^14 pfu of phage clone; acid-eluted phage
Experimental: Phage clones displaying specific peptides were used for comparing the binding characteristics of different peptide sequences. A titer-based assay was used to quantify the phage binding. This assay measures the output pfu retained by 10 mg of hair surfaces, having a signal to noise ratio of 10^3 to 10^4. The input for all the phage clones was 10^14 pfu. It should be emphasized that this assay measures the peptide-expressing phage particle, rather than peptide binding.
Normal hairs were cut into 0.5 cm lengths and 10 mg of the cut hair was placed in each well of a 96-well filter plate (Qiagen). Then, the wells were filled with blocking buffer containing 1 mg/mL BSA in TBST-0.5% and incubated for 1 h at 4° C. The hairs were washed 5 times with TBST-0.5%. The wells were then filled with 1 mL of TBST-0.5% containing 1 mg/mL BSA and then purified phage clones (10^14 pfu) were added to each well. The hair samples were incubated for 15 min at room temperature and then washed 10 times with TBST-0.5%. The hairs were transferred to a clean well and 1.0 mL of a non-specific elution buffer, consisting of 1 mg/mL BSA in 0.2 M Glycine-HCl at pH 2.2, was added to each well. The samples were incubated for 10 min and then 160 μL of neutralization buffer (1 M Tris-HCl, pH 9.2) was added to each well. The eluted phages from each well were transferred to a new tube for titering and sequencing analysis.
To titer the bound phages, the eluted phage was diluted with SM buffer to prepare 10-fold serial dilutions of 10^1 to 10^8. A 10 μL aliquot of each dilution was incubated with 200 μL of mid-log phase E. coli ER2738 (New England BioLabs), and grown in LB medium for 20 min and then mixed with 3 mL of agarose top (LB medium with 5 mM MgCl2, and 0.7% agarose) at 45° C. This mixture was spread onto a LB medium/IPTG/Xgal plate (LB medium with 15 g/L agar, 0.05 g/L IPTG, and 0.04 g/L Xgal) and incubated overnight at 37° C.

[4] = MB50 ELISA of biotinylated peptides on hair; assay type: binding, human; settings: for EC50: biotinylated peptide with C-terminal amidated cysteine; for binding affinity for hair (in words): respective substrate hair
Experimental: (§3) Hair-binding and skin-binding peptides were synthesized by Syn Pep Inc. (Dublin, Calif.). The peptides were biotinylated by adding a biotinylated lysine residue at the C-terminus of the amino acid binding sequences for detection purposes and an amidated cysteine was added to the C-terminus of the sequence.
(§4) For hair samples, the procedure used was as follows. The setup of the surface specific 96-well system used was the same as that described in Example 5. Briefly, the 96-wells with hair or pig skin surfaces were blocked with blocking buffer (SUPERBLOCK™ from Pierce Chemical Co., Rockford, Ill.) at room temperature for 1 h, followed by six washes with TBST-0.5%, 2 min each, at room temperature. Various concentrations of biotinylated, binding peptide were added to each well, incubated for 15 min at 37° C., and washed six times with TBST-0.5%, 2 min each, at room temperature. Then, streptavidin-horseradish peroxidase (HRP) conjugate (Pierce Chemical Co.) was added to each well (1.0 μg per well), and incubated for 1 h at room temperature. After the incubation, the wells were washed six times with TBST-0.5%, 2 min each at room temperature. Finally, the color development and the measurement were performed as described in Example 5.
(§5) The results were plotted as A450 versus the concentration of peptide using GraphPad Prism 4.0 (GraphPad Software, Inc., San Diego, Calif.).

[5] = Peptide competition ELISA on normal hair; assay type: binding, human
Experimental: The purpose of this Example was to test the peptide binding site specificity and affinity of the hair-binding peptide D21 using a competition ELISA. The ELISA assay only detects phage particles that remain bound to the hair surface.
The synthetic hair-binding peptide D21, given as SEQ ID NO:46, was synthesized by SynPep (Dublin, Calif.). As a control, an unrelated synthetic skin-binding peptide, given as SEQ ID NO:61, was added to the system. The experimental conditions were similar to those used in the ELISA method described in Example 5. Briefly, 100 μL of Binding Buffer (1×TBS with 0.1% Tween®20 and 1 mg/mL BSA) and 10^11 pfu of the pure D21 phage particles were added to each well of the 96-well filter plate, which contained a sample of normal hair. The synthetic peptide (100 μg) was added to each well (corresponding to concentration of 0.8 mM). The reactions were carried out at room temperature for 1 h with gentle shaking, followed by five washes with TBST-0.5%. The remaining steps were identical to the those used in the ELISA method described in Example 5. Each individual ELISA test was performed in triplicate; the values in Table 11 are the means of the triplicate determinations.

[6] = MB50 ELISA of biotinylated peptides on pig skin; assay type: binding; settings: for EC50: Substrate Pig Skin, biotinylated peptide with C-terminal amidated cysteine; for binding affinity for skin (in words): pig skin
Experimental: as §3, §4
For the measurement of MB50 of the peptide-skin complexes, the following procedure was used. First, the pigskin was treated to block the endogenous biotin in the skin. This was done by adding streptavidin to the blocking buffer. After blocking the pigskin sample, the skin was treated with D-biotin to block the excess streptavidin binding sites. The remaining steps were identical to those used for the hair samples.
as §5

Row | Substance | Hair A450 [1] | Pig Skin A450 [2] | Phage Titer [3] | further results
1 | AKTHKHPAPSYS (Hair-binding peptide) [Clone C13] | 0.375 | 0.024 | – | –
2 | DLHTVYH [Clone A] | – | – | 7.50 × 10^4 | –
3 | EQISGSLVAAPW (Hair-binding peptide) [Clone A5] | 0.431 | 0.256 | – | –
4 | GPHDTSSGGVRPNLHHTSKKEKRENRKVPFYSHSVTSRGNV (Hair-binding peptide) [Clone D5] | 0.652 | 0.104 | 1.67 × 10^8 | –
5 | HIKPPTR [Clone B] | – | – | 1.21 × 10^5 | –
6 | HLTVPWRGGGSAVPFYSHSQITLPNH (Hair-binding peptide) [Clone F] | – | – | 1.11 × 10^6 | –
7 | HPMSAPR (Hair-binding peptide) [Clone I] | – | – | 1.17 × 10^6 | –
8 | HPVWPAI [Clone D] | – | – | 8.20 × 10^4 | –
9 | KHGPDLLRSAPR (Control peptide) [Clone G-F9, reference compound] | 0.074 | −0.137 | – | –
10 | KHPTYRQ [Clone H] | – | – | 1.30 × 10^6 | –
11 | LGIPQNL [Clone D39] | 0.685 | 0.086 | – | –
12 | LPRIANTWSPS [Clone F35] | – | – | – | EC50 ([4]; Substrate Bleached Hair): 3000 nM; binding affinity for hair (in words) [4]: high
13 | MHAHSIA [Clone A36] | 0.585 | 0.173 | – | –
14 | MPKYYLQ [Clone J] | – | – | 1.24 × 10^6 | –
15 | MPLYYLQ [Clone E] | – | – | 1.70 × 10^5 | –
16 | NSPGYQADSVAIG (Hair-binding peptide) [Clone D30] | 0.414 | 0.287 | – | –
17 | RTNAADHPAAVT [Clone D21] | 1.051 | 0.04 | – | selectivity for hair compared to pig skin ([1]; phage ELISA hair vs pig skin): highest selectivity for hair; binding affinity for hair (in words) ([1]; phage ELISA, versus control G-F9): very strong affinity for hair; affinity for pig skin (in words) ([2]; phage ELISA): very low affinity for pig skin; A450 ([5]; 10^11 pfu D21 phage on normal hair, synthetic peptide 100 μg per well (0.8 mM), mean of triplicate): 1.878; competition with phage clone D21 for hair binding sites (in words) ([5]; synthetic peptide 0.8 mM): does compete with the phage clone D21 for the same binding sites on the hair surface; EC50 ([4]; Substrate Normal Hair): 2000 nM; binding affinity for hair (in words) [4]: high; EC50 [6]: 40000 nM; binding affinity for skin (in words) [6]: relatively low
18 | SLNWVTIPGPKI (Hair-binding peptide) [Clone C10] | 0.542 | 0.032 | – | –
19 | TAATTSP [Clone B1] | 0.42 | 0.127 | – | –
20 | TDMQAPTKSYSN (Hair-binding peptide) [Clone C5] | 0.548 | 0.047 | – | –
21 | TPALDGLRQPLR (Hair-binding peptide) [Clone C18] | 0.34 | 0.132 | – | –
22 | TPFHSPENAPGS [SEQ ID NO: 61] | – | – | – | EC50 [6]: 700 nM; binding affinity for skin (in words) [6]: high
23 | TPPELLHGDPRS [Clone I-B5] | – | – | – | EC50 ([4]; Substrate Normal and Bleached Hair): 300 nM; binding affinity for hair (in words) [4]: high; EC50 [6]: > 100000 nM; binding affinity for skin (in words) [6]: relatively low
